Patent US9193951B2, “Differentiation method for production of glial cell populations” (Case Western Reserve University, priority 2010, dated 2015)

Assays:
Format in all cases: cell-based, mice
EpiSC-derived OPCs [1] = assay: Modulation of OPC differentiation by extrinsic factors in T3 differentiation medium
Method: (§1) For differentiation of OPCs into oligodendrocytes, cells were plated at 2.2×10^4 cells cm^−2 and induced with neural base medium supplemented with 0.4 ng ml^−1 T3 (Sigma-Aldrich, St. Louis, Mo.), 200 ng ml^−1 SHH, 100 ng ml^−1 noggin, 10 μM dibutyryl cyclic-AMP sodium salt, 100 ng ml^−1 IGF-1 and 10 ng ml^−1 NT3. Attempts to modulate the outcome of this differentiation paradigm included treatments with Jag1 (R&D Systems, Minneapolis, Minn.), CHIR99021 (Stemgent, San Diego, Calif.), LIF (Millipore, Billerica, Mass.) and/or BMP4 (R&D Systems, Minneapolis, Minn.).
Next, the ability of extrinsic factors to modulate the differentiation of Epi-SC-derived OPCs was explored. […] As a simple proof-of-principle for using the system to screen for compounds, EpiSC-derived OPCs were exposed to three different treatment regimens involving modulation of signaling pathways (Notch, Wnt-β-catenin and BMP) previously implicated in oligodendrocyte development or differentiation. […] Using a similar protocol, the role of GSK3β, a negative regulator of Wnt-β-catenin signaling, was tested by treating EpiSC-derived OPCs with the GSK3β inhibitor CHIR99021.

EpiSC-derived OPCs [2] = assay: Differentiation of EpiSC-derived OPCs into oligodendrocytes; details: day 2 of differentiation, absence of FGF2 and PDGF-AA, n>480 cells
Method: as §1
Live-cell staining was used for the cell-surface marker O4. Live cells were blocked with 10% normal goat serum and treated with O4 antibody for 20 min at 37° C. Cells were gently rinsed three times with warm neural base medium and fixed in 4% paraformaldehyde. […]
To determine the differentiation capacity of the EpiSC-derived OPCs, the EpiSc-derived OPCs were treated with thyroid hormone (T3), which is known to be important both in vitro and in vivo in regulating the transition of OPCs into oligodendrocytes, in the absence of both FGF2 and PDGF-AA. […] By day 4, the overwhelming majority of EpiSC-derived OPCs had become oligodendrocytes, though cell death and rare proliferation events made exact quantification challenging without large-scale time-lapse lineage analysis. […]

EpiSC-derived OPCs [3] = assay: Respecification of EpiSC-derived OPCs into astrocytes; details: combined treatment with BMP4 and LIF; majority of cells
Method: as §1
The final treatment involved exposure of EpiSC-derived OPCs to signaling cascades known to respecify OPCs in vitro into an alternate glial fate, astrocytes.

[4] = tested on: EpiSC-derived patterned neuroectoderm; assay: Region-specific patterning of EpiSC-derived neuroectoderm; details: Day-4 neuroectoderm treated 1 day with retinoic acid and SHH in continued presence of noggin (combined)
Method: On day 4, cultures were fed with neural base medium supplemented with 100 ng ml^−1 noggin, 10 μM retinoic acid (Sigma-Aldrich, St. Louis, Mo.; maintained as a 20 mM stock solution in DMSO) and 200 ng ml^−1 SHH (R&D Systems; C24II). To test whether the induced patterned neuroectoderm behaved as un-induced neuroectoderm behaves, the induced EpiSC-derived patterned neuroectoderm were patterned in a region-specific manner. […] Day-4 EpiSC-derived patterned neuroectoderm was treated for 1 day with specific concentrations of retinoic acid and SHH in the continued presence of noggin to pattern them in a region-specific way.

Q: How did the “expression of mature oligodendrocyte markers” value (EpiSC-derived OPCs [1]; FIG. 5, treatment of OPCs) turn out when `Cc1c[nH]c(-c2cnc(NCCNc3ccc(C#N)cn3)nc2-c2ccc(Cl)cc2Cl)n1` [CHIR99021] was run?
A: The value was “suppression”.

Q: What about the “oligodendrocyte differentiation (progression of Olig2+ OPCs to O4+ oligodendrocytes)” value (EpiSC-derived OPCs [1]; T3 differentiation medium, FIG. 5) of the same molecule?
A: Its value is “concentration-dependent inhibition”.

Q: Which “cells strongly O4+ with multiprocessed morphology” value (EpiSC-derived OPCs [2]) does the source give for `N[C@@H](Cc1cc(I)c(Oc2ccc(O)c(I)c2)c(I)c1)C(=O)O` [T3, triiodothyronine] here?
A: The value was “greater than 64%”.

Q: “Jagged1: the Notch ligand Jagged1 (Jag1)” was tested. Which “rate or number of O4+ oligodendrocytes” value (EpiSC-derived OPCs [1]; 2 days, T3 differentiation medium) did it give?
A: The value was “did not impact”.

Q: Which “respecification into astrocytes (morphological and gene expression changes)” value (EpiSC-derived OPCs [3]) does the source give for “LIF: leukemia inhibitory factor, activator of JAK/STAT pathways” here?
A: Its value is “upregulation of GFAP”.

B1: noggin: a BMP antagonist; secreted polypeptide encoded by the NOG gene (protein, UniProt Q13253 28-232, looked up)
Noggin: QHYLHIRPAPSDNLPLVDLIEHPDPIFDPKEKDLNETLLRSLLGGHYDPGFMATSPPEDRPGGGGGAAGGAEDLAELDQLLRQRPSGAMPSEIKGLEFSEGLAQGKKQRLSKKLRRKLQMWLWSQTFCPVLYAWNDLGSRFWPRYVKVGSCFSKRSCSVPEGMVCKPSKSVHLTVLRWRCQRRGGQRCGWIPIQYPIISECKCSC
Q: For B1, which “expression of OPC-relevant transcription factors Olig2 and Nkx2.2” value [4] is on record?
A: Its value is “upregulation”.

B2: BMP4: bone morphogenetic protein 4, ligand of the TGF beta superfamily (protein, UniProt P12644 293-408, looked up)
Bone morphogenetic protein 4: SPKHHSQRARKKNKNCRRHSLYVDFSDVGWNDWIVAPPGYQAFYCHGDCPFPLADHLNSTNHAIVQTLVNSVNSSIPKACCVPTELSAISMLYLDEYDKVVLKNYQEMVVEGCGCR
Q: Which “respecification into astrocytes (morphological and gene expression changes)” value (EpiSC-derived OPCs [3]) does the source give for B2 here?
A: The value was “upregulation of GFAP”.
